Measurements as given in patent US20160237067A1, “SUBSTITUTED PHENYLALANINE DERIVATIVES” (BAYER PHARMA AKTIENGESELLSCHAFT, priority 2013, published 2016).
Structures can show the parent of a compound that is named as a salt.

How the values were obtained:
[1] = system: human and animal plasma; assay: Determination of anticoagulatory activity: activated partial thromboplastin time (aPTT) in plasma; type: biochemical; settings: C.K. Prest kit, 37° C., 3 minutes incubation, plasma species of Table B not stated
How it was run: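 Citrated human or animal plasma (e.g. mouse, rat, rabbit, pig, dog) preincubated 3 min at 37 °C with test substance and cephalin/kaolin PTT reagent. Value is the concentration giving a 1.5-fold aPTT extension.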

[2] = target: T1, human factor XIa (Homo sapiens, UniProt P03951); assay: Measurement of FXIa inhibition (fluorogenic peptide substrate Boc-Glu(OBzl)-Ala-Arg-AMC); type: biochemical; settings: factor XIa from Kordia 0.45 nM; 15 min preincubation; 30 min at 22° C.
T1 construct: purchased Kordia
T1 sequence (P03951 388-625 limits assumed): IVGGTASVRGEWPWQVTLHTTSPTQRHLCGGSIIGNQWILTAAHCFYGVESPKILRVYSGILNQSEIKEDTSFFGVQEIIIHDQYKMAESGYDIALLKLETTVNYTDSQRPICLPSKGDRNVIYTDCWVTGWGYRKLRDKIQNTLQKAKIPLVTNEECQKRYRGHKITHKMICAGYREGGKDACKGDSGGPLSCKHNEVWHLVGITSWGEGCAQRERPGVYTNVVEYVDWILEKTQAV
T1 sequence (P03951 19-387 partner limits assumed): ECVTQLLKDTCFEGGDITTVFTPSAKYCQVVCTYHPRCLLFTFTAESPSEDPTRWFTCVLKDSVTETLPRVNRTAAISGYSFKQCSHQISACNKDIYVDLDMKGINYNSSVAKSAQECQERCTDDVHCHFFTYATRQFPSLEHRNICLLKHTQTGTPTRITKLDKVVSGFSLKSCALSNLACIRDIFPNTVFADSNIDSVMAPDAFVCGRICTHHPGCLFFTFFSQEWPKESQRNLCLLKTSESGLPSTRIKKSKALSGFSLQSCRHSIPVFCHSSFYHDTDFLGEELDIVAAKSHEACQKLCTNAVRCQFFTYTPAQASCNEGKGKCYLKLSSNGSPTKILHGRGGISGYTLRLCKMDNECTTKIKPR

Row | SMILES | aPTT (concentration of test substance which brings about a 1.5-fold extension of the aPTT) [1] | IC50 [2]
1 | Cc1ccc(C(=O)NC2CCNC(=O)C2)cc1-c1ccc(C[C@H](NC(=O)[C@H]2CC[C@H](CN)CC2)C(=O)Nc2ccc(-c3nn[nH]n3)cc2)cc1 (stereo partly drawn) [Example 36, 4′-[(2S)-2-({[trans-4-(Aminomethyl)cyclohexyl]carbonyl}amino)-3-oxo-3-{[4-(2H-tetrazol-5-yl)phenyl]amino}propyl]-6-methyl-N-(2-oxopiperidin-4-yl)biphenyl-3-carboxamide hydrochloride] | 0.14 µmol/L | 1.9 nM
2 | Cc1cc(C(=O)NC2CCC(N(C)C)CC2)cc(-c2ccc(C[C@H](NC(=O)[C@H]3CC[C@H](CN)CC3)C(=O)Nc3ccc(-c4nn[nH]n4)cc3)cc2)c1 (stereo partly drawn) [Example 37, 4′-[(2S)-24 {[trans-4-(Aminomethyl)cyclohexyl]carbonyl}amino)-3-oxo-3-{[4-(2H-tetrazol-5-yl)phenyl]amino}propyl]-N-[4-(dimethylamino)cyclohexyl]-5-methylbiphenyl-3-carboxamide hydrochloride] | 0.14 µmol/L | 7.5 nM
3 | Cc1ccc(-c2ccc(C[C@H](NC(=O)[C@H]3CC[C@H](CN)CC3)C(=O)Nc3ccc(-c4nn[nH]n4)cc3)cc2)cc1C(=O)N1CCOCC1 [Example 38, trans-4-(Aminomethyl)-N-[(2S)-3-[4′-methyl-3′-(morpholin-4-ylcarbonyl)biphenyl-4-yl]-1-oxo-1-{[4-(2H-tetrazol-5-yl)phenyl]amino}propan-2-yl]cyclohexanecarboxamide hydrochloride] | 0.22 µmol/L | 4.1 nM
4 | Cc1cc(C(=O)NC2CCNCC2)cc(-c2ccc(C[C@H](NC(=O)[C@H]3CC[C@H](CN)CC3)C(=O)Nc3ccc(-c4nn[nH]n4)cc3)cc2)c1 [Example 40, 4′-[(2S)-2-({[trans-4-(Aminomethyl)cyclohexyl]carbonyl}amino)-3-oxo-3-{[4-(2H-tetrazol-5-yl)phenyl]amino}propyl]-5-methyl-N-(piperidin-4-yl)biphenyl-3-carboxamide hydrochloride] | 0.06 µmol/L | 4.1 nM
5 | Cc1ccc(C(=O)NC2CCN(C)CC2)cc1-c1ccc(C[C@H](NC(=O)[C@H]2CC[C@H](CN)CC2)C(=O)Nc2ccc(-c3nc(C(F)(F)C(F)(F)C(=O)O)n[nH]3)cc2)cc1 [Example 42, 3-[5-(4-{[(2S)-2-({[trans-4-(Aminomethyl)cyclohexyl]carbonyl}amino)-3-{2′-methyl-5′-[(1-methylpiperidin-4-yl)carbamoyl]biphenyl-4-yl}propanoyl]amino}phenyl)-1H-1,2,4-triazol-3-yl]-2,2,3,3-tetrafluoropropanoic acid hydrochloride] | 0.16 µmol/L | 6.8 nM
6 | Cc1ccc(C(=O)NC(C)C)cc1-c1ccc(C[C@H](NC(=O)[C@H]2CC[C@H](CN)CC2)C(=O)Nc2ccc(-c3nc(CCC(=O)O)n[nH]3)cc2)cc1 [Example 43, 3-{5-[4-({(2S)-2-({[trans-4-(Aminomethyl)cyclohexyl]carbonyl}amino)-3-[5′-(isopropylcarbamoyl)-2′-methylbiphenyl-4-yl]propanoyl}amino)phenyl]-1H-1,2,4-triazol-3-yl}propanoic acid hydrochloride] | 0.38 µmol/L | 9.7 nM
7 | COc1ccc(-c2ccc(C[C@H](NC(=O)[C@H]3CC[C@H](CN)CC3)C(=O)Nc3ccc(-c4nc(C(F)(F)C(F)(F)C(=O)O)n[nH]4)cc3)cc2)cc1S(=O)(=O)N1CCOCC1 [Example 44, 3-{5-[4-({(2S)-2-({[trans-4-(Aminomethyl)cyclohexyl]carbonyl}amino)-3-[4′-methoxy-3′-(morpholin-4-ylsulphonyl)biphenyl-4-yl]propanoyl}amino)phenyl]-1H-1,2,4-triazol-3-yl}-2,2,3,3-tetrafluoropropanoic acid hydrochloride] | 0.2 µmol/L | 2.2 nM
